The values that follow come from patent US10072016B2, “Substituted 4-phenylpiperidines, their preparation and use” (The Trustees of Columbia University in the City of New York, priority 2014, dated 2018).

One may read the IC50 as the concentration at which inhibition is half-maximal.

For series [1], the target named is T1, RBP4 (Homo sapiens (Human), UniProt P02753). The following applies: cited from earlier work.
For series [2], the target named is T2, RBP4-TTR interaction (Homo sapiens (Human), UniProt P02753). The following applies: cited from earlier work.
For series [3] the following is noted: in vivo; cited from earlier work.
In series [4] the test system is many cell types, including the retinal pigment epithelium cells. The following applies: cited from earlier work.
In series [5] the target is serum RBP4 and retinol (Rattus norvegicus (Rat), UniProt P04916). The settings on record: in vivo; cited from earlier work.
Series [6] concerns ocular all-trans retinol uptake. The following applies: in vivo; cited from earlier work.
The subject of series [7] is Abca4−/− mice. The settings on record: animal model of excessive bisretinoid accumulation; cited from earlier work.
Series [8] has as its target T1, RBP4. Put plainly: Scintillation proximity (SPA) RBP4 binding assay. The settings on record: 10 nM 3H-Retinol, 50 nM biotinylated RBP4. On the procedure: Scintillation Proximity RBP4 Binding Assay
Untagged human RBP4 purified from urine of tubular proteinuria patients was purchased from Fitzgerald Industries International. It was biotinylated using the EZ-Link Sulfo-NHS-LC-Biotinylation kit from Pierce following the manufacturer's recommendations. Binding experiments were performed in 96-well plates (OptiPlate, PerkinElmer) in a final assay volume of 100 μl per well in SPA buffer (1×PBS, pH 7.4, 1 mM EDTA, 0.1% BSA, 0.5% CHAPS). The reaction mix contained 10 nM ^3H-Retinol (48.7 Ci/mmol; PerkinElmer), 0.3 mg/well Streptavidin-PVT beads, 50 nM biotinylated RBP4 and a test compound. Nonspecific binding was determined in the presence of 20 μM of unlabeled retinol. The reaction mix was assembled in the dark under dim red light. The plates were sealed with clear tape (TopSeal-A: 96-well microplate, PerkinElmer), wrapped in the aluminum foil, and allowed to equilibrate 6 hours at room temperature followed by overnight incubation at +4° C. Radiocounts were measured using a TopCount NXT counter (Packard Instrument Company).

The target in series [9] is T2, RBP4-TTR interaction. The series can be described thus: TR-FRET (HTRF) assay for retinol-induced RBP4-TTR interaction. The class given is biochemical. The settings on record: in the presence of 1 μM retinol; read-out: HTRF assay for antagonists of RBP4-TTR interaction: IC50. From the text:
Binding of a desired RBP4 antagonist displaces retinol and induces hindrance for RBP4-TTR interaction resulting in the decreased FRET signal (FIG. 7). Bacterially expressed MBP-RBP4 and untagged TTR were used in this assay. […] Following cell lysis, recombinant RBP4 was purified from the soluble fraction using the ACTA FPLC system (GE Healthcare) equipped with the 5-ml the MBP Trap HP column. Human untagged TTR was purchased from Calbiochem. Untagged TTR was labeled directly with Eu^3+ Cryptate-NHS using the HTRF Cryptate Labeling kit from CisBio following the manufacturer's recommendations. HTRF assay was performed in white low volume 384 well plates (Greiner-Bio) in a final assay volume of 16 μl per well. The reaction buffer contained 10 mM Tris-HCl pH 7.5, 1 mM DTT, 0.05% NP-40, 0.05% Prionex, 6% glycerol, and 400 mM KF. […] Titration of test compounds in this assay was conducted in the presence of 1 μM retinol. All reactions were assembled in the dark under dim red light and incubated overnight at +4° C. wrapped in aluminum foil. TR-FRET signal was measured in the SpectraMax M5e Multimode Plate Reader (Molecular Device). […] The TR-FRET signal was expressed as the ratio of fluorescence intensity: Flu665/Flu620×10,000.

SMILES strings stand for the structures.

For the compound `CC1=C(/C=C/C(C)=C/C=C/C(C)=C/C(=O)Nc2ccc(O)cc2)C(C)(C)CCC1` [fenretinide, N-(4-hydroxy-phenyl)retinamide], in series [1], the “binding to RBP4” value is on record as “bind to RBP4” and the “displacement of all-trans retinol from RBP4” value is “displace all-trans retinol from RBP4”. Further, the “disruption of RBP4-TTR interaction” value in series [2] was “disrupt the RBP4-TTR interaction”. Moreover, the teratogenicity result in series [3] is recorded as “teratogenic”. Moreover, the induction of apoptosis entry in series [4] was “extremely active inducer of apoptosis”. Further, the “serum RBP4 and retinol” value in series [5] was “reduce serum RBP4 and retinol”. In [6], the “ocular all-trans retinol uptake and visual cycle” value is “inhibit ocular all-trans retinol uptake and slow down the visual cycle”. Besides, the A2E production result in series [7] is given as “reduced A2E production”.
With `COCCN1CCc2c(C(=O)N3CCC(c4cccc(F)c4C(F)(F)F)CC3)n[nH]c2C1` [Compound 73], the IC50 in series [8] is 0.0085 µM; in [9] it was 0.0306 µM.
